Experimental data: PubChem BioAssay AID330 (DTP/NCI, 2004)
Several values for one entry are separate records, joined by “and”; a condition that tells them apart may be missing. Equal entries are not always repeated. Toxic doses and inconclusive results are not listed. How the source made its calls: active means survival T/C of 150% or more; inactive means T/C below 125% in these data.

Test system: P388 leukemia ip, CD2F1 mice, survival T/C
Assay: NCI In Vivo Anticancer Drug Screen. Data for tumor model P388 Leukemia (intraperitoneal) in CD2F1 (CDF1) mice
Conditions: endpoint: median survival time, higher = longer survival
Outline: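 Mice carrying the transplanted tumor received test compound or vehicle. Survival was recorded in each group, and the value is the treated-group measurement divided by that of the vehicle-treated control group.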

[1] = dose: 25.0 mg/kg/injection, schedule: Q01DX009 (ip), vehicle: Klucel (hydroxypropylcellulose) (HPC)
[2] = dose: 50.0 mg/kg/injection, schedule: Q01DX009 (ip), vehicle: Klucel (hydroxypropylcellulose) (HPC)
[3] = dose: 100.0 mg/kg/injection, schedule: Q01DX009 (ip), vehicle: Klucel (hydroxypropylcellulose) (HPC)
[4] = dose: 200.0 mg/kg/injection, schedule: Q01DX009 (ip), vehicle: Klucel (hydroxypropylcellulose) (HPC)
[5] = dose: 25.0 mg/kg/injection, schedule: Q01DX009 (ip), vehicle: saline with Tween-80
[6] = dose: 50.0 mg/kg/injection, schedule: Q01DX009 (ip), vehicle: saline with Tween-80
[7] = dose: 100.0 mg/kg/injection, schedule: Q01DX009 (ip), vehicle: saline with Tween-80
[8] = dose: 100.0 mg/kg/injection, schedule: Q04DX002 (ip), vehicle: saline with Tween-80
[9] = dose: 200.0 mg/kg/injection, schedule: Q04DX002 (ip), vehicle: saline with Tween-80
[10] = dose: 400.0 mg/kg/injection, schedule: Q04DX002 (ip), vehicle: saline with Tween-80
[11] = dose: 12.5 mg/kg/injection, schedule: Q01DX009 (ip), vehicle: saline with Tween-80
[12] = dose: 50.0 mg/kg/injection, schedule: Q01DX005 (ip), vehicle: Klucel (hydroxypropylcellulose) (HPC)
[13] = dose: 100.0 mg/kg/injection, schedule: Q01DX005 (ip), vehicle: Klucel (hydroxypropylcellulose) (HPC)
[14] = dose: 60.0 mg/kg/injection, schedule: Q01DX005 (ip), vehicle: saline with Tween-80
[15] = dose: 120.0 mg/kg/injection, schedule: Q01DX005 (ip), vehicle: saline with Tween-80
[16] = dose: 12.5 mg/kg/injection, schedule: Q01DX009 (ip), vehicle: Klucel (hydroxypropylcellulose) (HPC)
[17] = dose: 200.0 mg/kg/injection, schedule: Q01DX009 (ip), vehicle: saline with Tween-80
[18] = dose: 50.0 mg/kg/injection, schedule: Q01DX005 (ip), vehicle: saline with Tween-80
[19] = dose: 100.0 mg/kg/injection, schedule: Q01DX005 (ip), vehicle: saline with Tween-80
[20] = dose: 200.0 mg/kg/injection, schedule: Q01DX005 (ip), vehicle: saline with Tween-80

Measured: T/C

CN1C=c2c3c(ccc2=C2C=CC4C=C5OCOC5=CC4=C21)OCO3 (stereo not drawn)
inactive: dose: 4.0 mg/kg/injection, schedule: Q01DX009 (ip), vehicle: saline with Tween-80 113 % of control | dose: 8.0 mg/kg/injection, schedule: Q01DX009 (ip), vehicle: saline with Tween-80 107 % of control | dose: 16.0 mg/kg/injection, schedule: Q01DX009 (ip), vehicle: saline with Tween-80 110 % of control

CN(C)c1ccc(/C=C/c2nc3ccccc3s2)cc1
inactive: [1] 108 % of control | [2] 99 % of control | [3] 99 % of control | [4] 98 % of control

CC1NCC23CCC4C(CC=C5CC(O)CCC54C)C2CCC13 (stereo not drawn)
inactive: [5] 90 % of control | [6] 87 % of control | [7] 94 % of control

Cn1c(=O)c2c(-c3ccccc3)cc(-c3ccccc3)nc2n(C)c1=O
inactive: [8] 97 % of control | [9] 100 % of control | [10] 101 % of control

O=[N+]([O-])c1cnc2ccccn12
inactive: [11] 100 % of control | [5] 93 % of control | [6] 94 % of control | [7] 95 % of control

CN(C)c1ccc(/C=C/c2ccnc3ccc(Cl)cc23)cc1
inactive: [5] 118 % of control

C=C(C)C1CCc2c(C)cc(OC(C)=O)c(C(=O)OC(C)=O)c2C1 (stereo not drawn)
inactive: dose: 5.0 mg/kg/injection, schedule: Q01DX005 (ip), vehicle: saline 107 % of control | dose: 10.0 mg/kg/injection, schedule: Q01DX005 (ip), vehicle: saline 105 % of control | dose: 20.0 mg/kg/injection, schedule: Q01DX005 (ip), vehicle: saline 105 % of control

CC1CCC(C(C)C)C(NC(=O)c2cc[n+](C)cc2)C1 (stereo not drawn)
inactive: [12] 100 % of control | [13] 108 % of control

Cc1ccc(N/N=c2\c3nc4ccccc4nc2n(-c2ccccc2C)c(=S)n3-c2ccc(C)cc2)cc1
inactive: [14] 93 % of control | [15] 96 % of control

CC1(C)CCCC(C)(C2CCC3(C)C2C(O)CC2C4(C)CCC(O)C(C)(C)C4C(O)CC23C)O1 (stereo not drawn)
inactive: dose: 6.25 mg/kg/injection, schedule: Q01DX009 (ip), vehicle: Klucel (hydroxypropylcellulose) (HPC) 101 % of control | [16] 99 % of control | [1] 96 % of control | [2] 92 % of control | [3] 92 % of control

Cc1c(O)c(=O)ccn1CCN
inactive: dose: 50.0 mg/kg/injection, schedule: Q01DX005 (ip), vehicle: saline 98 % of control and 102 % of control | dose: 100.0 mg/kg/injection, schedule: Q01DX005 (ip), vehicle: saline 100 % of control and 109 % of control | dose: 200.0 mg/kg/injection, schedule: Q01DX005 (ip), vehicle: saline 99 % of control and 104 % of control | dose: 400.0 mg/kg/injection, schedule: Q01DX005 (ip), vehicle: saline 91 % of control and 95 % of control

Cc1ccc(N)c(S)c1
inactive: [16] 98 % of control | [1] 120 % of control | [2] 117 % of control

O=c1[nH]c2ccc(Cl)cc2c2ccccc12
inactive: [2] 101 % of control | [3] 100 % of control | [4] 105 % of control

Cc1c(C)c(C)c(S(=O)(=O)NCCNS(=O)(=O)c2c(C)c(C)c(C)c(C)c2C)c(C)c1C
inactive: [12] 103 % of control | [13] 94 % of control | dose: 200.0 mg/kg/injection, schedule: Q01DX005 (ip), vehicle: Klucel (hydroxypropylcellulose) (HPC) 93 % of control

CN(C)c1ccc(C2(C(=O)O)CCCC(C)(C)C2)cc1 (stereo not drawn)
inactive: dose: 100.0 mg/kg/injection, schedule: Q01DX001 (ip), vehicle: Klucel (hydroxypropylcellulose) (HPC) 95 % of control | dose: 200.0 mg/kg/injection, schedule: Q01DX001 (ip), vehicle: Klucel (hydroxypropylcellulose) (HPC) 95 % of control | dose: 400.0 mg/kg/injection, schedule: Q01DX001 (ip), vehicle: Klucel (hydroxypropylcellulose) (HPC) 92 % of control

CC[As](CC)SC1CC(OC(=O)c2ccccc2)C(OC(=O)c2ccccc2)C(COC(=O)c2ccccc2)O1 (stereo not drawn)
inactive: [6] 100 % of control | [7] 105 % of control

CN(C)c1cc(N(C)C)c2ccccc2n1
inactive: [16] 102 % of control | [1] 106 % of control | [3] 97 % of control

COC1/C=C/OC2(C)Oc3c(C)c(O)c4c(O)c(c(/C=N/N(C)C5OC(COC(=O)c6ccccc6)C(OC(=O)c6ccccc6)C5OC(=O)c5ccccc5)c(O)c4c3C2=O)NC(=O)C(C)=C/C=C/C(C)C(O)C(C)C(O)C(C)C(OC(C)=O)C1C (stereo not drawn)
inactive: [11] 104 % of control | [5] 107 % of control | [6] 108 % of control and 112 % of control | [7] 114 % of control | [17] 117 % of control

CC(NNC(=S)N1CCN(c2ccccn2)CC1)c1ccccn1 (stereo not drawn)
inactive: dose: 12.5 mg/kg/injection, schedule: Q01DX005 (ip), vehicle: Klucel (hydroxypropylcellulose) (HPC) 99 % of control | dose: 25.0 mg/kg/injection, schedule: Q01DX005 (ip), vehicle: Klucel (hydroxypropylcellulose) (HPC) 101 % of control | [12] 109 % of control and 95 % of control

CC(C(=O)O)c1ccc2oc(-c3ccc(Cl)cc3)nc2c1 (stereo not drawn)
inactive: dose: 50.0 mg/kg/injection, schedule: Q01DX009 (ip), vehicle: suspension in saline 104 % of control | dose: 100.0 mg/kg/injection, schedule: Q01DX009 (ip), vehicle: suspension in saline 100 % of control | dose: 200.0 mg/kg/injection, schedule: Q01DX009 (ip), vehicle: suspension in saline 100 % of control

O=C(O)c1cccc(C(=O)O)c1Sc1c(C(=O)O)cccc1C(=O)O
inactive: dose: 100.0 mg/kg/injection, schedule: Q01DX001 (ip), vehicle: saline with Tween-80 99 % of control | dose: 200.0 mg/kg/injection, schedule: Q01DX001 (ip), vehicle: saline with Tween-80 95 % of control | dose: 400.0 mg/kg/injection, schedule: Q01DX001 (ip), vehicle: saline with Tween-80 91 % of control

COc1ccc(C2C3C(=O)OCCOC(=O)C3C2c2ccc(OC)c(OC)c2)cc1OC (stereo not drawn)
inactive: [18] 99 % of control | [19] 104 % of control | [20] 99 % of control

CC(=O)c1ccc2c(=O)n3c4ccccc4nc3c3cccc1c23
inactive: [6] 118 % of control | [7] 104 % of control

C=C(C)C(C(=O)OCC)C(=O)OCC
inactive: [6] 101 % of control | [7] 107 % of control | [17] 110 % of control

Cc1ncc([N+](=O)[O-])n1CCSC(N)=O
inactive: dose: 50.0 mg/kg/injection, schedule: Q04DX003 (ip), vehicle: saline 102 % of control and 105 % of control | dose: 100.0 mg/kg/injection, schedule: Q04DX003 (ip), vehicle: saline 102 % of control and 114 % of control | dose: 200.0 mg/kg/injection, schedule: Q04DX003 (ip), vehicle: saline 100 % of control and 114 % of control | dose: 400.0 mg/kg/injection, schedule: Q04DX003 (ip), vehicle: saline 100 % of control and 120 % of control

CC1(C)Cc2cc3ccccc3nc2-c2ccccc21
inactive: [18] 107 % of control | [19] 102 % of control | [20] 107 % of control

Cn1c2c(c3cc(Cl)cc(Cl)c31)-c1ncncc1CC2
inactive: [8] 98 % of control | [9] 98 % of control | [10] 95 % of control

O=C(CCl)Nc1cc2ccccc2oc1=O
inactive: [14] 105 % of control | [15] 109 % of control

COc1cc2c(cc1OC)C(c1ccc(S(=O)(=O)C(C)C)cc1)NCC2 (stereo not drawn)
inactive: [2] 89 % of control | [3] 101 % of control | [4] 108 % of control
